From patent US20110306606A1, “NOVEL 2,6-SUBSTITUTED-3-NITROPYRIDINE DERIVATIVE, METHOD FOR PREPARING SAME, AND PHARMACEUTICAL COMPOSITION INCLUDING SAME” (priority 2008, published 2011)
Read-outs that look alike come from different tables or passages of the source.

How the values were obtained:
[1] = tested on: Osteoblasts (Calvarial cells); experiment: Cytotoxicity test (MTT); settings: 1 μM compound, 72 hours, in comparison with vehicle control
[2] = tested on: Osteoblasts (Calvarial cells); experiment: Alkaline phosphatase (ALP) activity in osteoblasts (Calvarial cells); assay type: cell-based, mice; settings: 1 μM compound, 3 days
Procedure: Differentiation and activity of osteoblasts were indirectly evaluated by measuring an ALP activity having a close relationship with osteogenesis.
Osteoblasts (Calvarial cells) prepared in Experimental Example 1 and MC3T3-E1 cells (available from RIKEN Cell Bank, Japan) were collected in α-MEM supplemented with 10% FBS, followed by cell counting. The cells were dispensed into 24-well cultureware at a density of 2×10^4 cells/well. After culturing of the cells for 24 hours, the culture media were discarded and replaced with fresh media in which test compounds were diluted to a concentration of 1 μM (1 mL/well). In addition, the vehicle control group containing 0.1% DMSO was also treated. […] When the experiment was terminated, the supernatant was removed and the cells were washed three times with cold phosphate buffer at 4°. 0.2% Triton X-100 was added to the washed cells which were then subjected to three cycles of freezing at −70° and thawing at room temperature for the complete lysis of cells. The cell extracts were pooled and centrifuged to collect the cell supernatant which was used for the measurement of ALP activity and proteins. The protein concentration was measured using a BCA assay kit (manufactured by Sigma-Aldrich). For the measurement of ALP activity, p-nitrophenylphosphate was added to the cell supernatant which was then incubated at 37° for 30 minutes, and the reaction was terminated with the addition of 50 μL of 0.2N sodium hydroxide. The standard curve was plotted at the absorbance of 405 nm using p-nitrophenol as a standard material and then the absorbance of test materials thus reacted was measured to determine the production amount of p-nitrophenol.
The ALP activity was calculated by dividing the amount of p-nitrophenol produced from each test material by the protein amount and the reaction time. Therefore, the unit of ALP activity was given in terms of p-nitrophenol/μg protein/min. The results are given in Tables 28-1 and 28-2 where the ALP activity unit of each test material was given in terms of % change through the comparison between the individual test materials and the vehicle control group.

[3] = tested on: Osteoblasts (Calvarial cells); settings: ICR, mouse, 72 h, 1 μM

Structure (SMILES)	Cell viability (%) Calvarial cell [1] [%]	ALP activity (1 μM, % of Control) Calvarial cell [2]	Cell viability (%) Calvarial cell [3] [%]	activity at 1 µM ([2]; Mus musculus, 72 h, Calvarial cell, read-out: ALP activity (1 μM, % of Control) Calvarial cell) [%]
CC1=NCCN1c1ccc([N+](=O)[O-])c(Nc2ccc(C)cc2)n1 [Compound 6, 2-(4-methylphenylamino)-6-[(2-methyl-4,5-dihydro)imidazol-1-yl]-3-nitropyridine]	94	116 % of Control	–	–
Cc1ccc(Nc2nc(N3CCOCC3)ccc2[N+](=O)[O-])cc1 [Compound 14, 2-(4-methylphenylamino)-6-morpholino-3-nitropyridine]	–	–	99	135
CC1=NCCN1c1ccc([N+](=O)[O-])c(Nc2ccc(C(C)(C)C)cc2)n1 [Compound 35, 2-[4-(t-butyl)phenylamino]-6-[(2-methyl-4,5-dihydro)imidazol-1-yl]-3-nitropyridine]	96	132 % of Control	–	–
CCN(CCO)c1ccc([N+](=O)[O-])c(Nc2ccc(C#N)cc2)n1 [Compound 51, 2-(4-cyanophenylamino)-6-[(N-ethyl-2-hydroxy)ethylamino]-3-nitropyridine]	100	116 % of Control	–	–
CCN(CCO)c1ccc([N+](=O)[O-])c(Nc2ccc(N3CCOCC3)cc2)n1 [Compound 118, 2-(4-morpholinophenylamino)-6-[(N-ethyl-2-hydroxy)ethylamino]-3-nitropyridine]	102	111 % of Control	–	–
CC(C)CNc1ccc([N+](=O)[O-])c(Nc2ccc(F)c(F)c2)n1 [Compound 124, 2-[(3,4-difluoro)phenylamino]-6-(isobutylamino)-3-nitropyridine]	–	–	106	–
O=[N+]([O-])c1ccc(N2CCC(O)CC2)nc1Nc1ccc(F)c(F)c1 [Compound 126, 2-[(3,4-difluoro)phenylamino]-6-(4-hydroxypiperidino)-3-nitropyridine]	–	–	95	–
CN1CCN(c2ccc([N+](=O)[O-])c(Nc3ccc(F)c(F)c3)n2)CC1 [Compound 128, 2-[(3,4-difluoro)phenylamino]-6-(4-methylpiperazin-1-yl)-3-nitropyridine]	–	–	87	–
O=[N+]([O-])c1ccc(N2CCOCC2)nc1Nc1ccc(F)c(F)c1 [Compound 129, 2-[(3,4-difluoro)phenylamino]-6-morpholino-3-nitropyridine]	–	–	88	–
NC1CCN(c2ccc([N+](=O)[O-])c(Nc3ccc(F)c(F)c3)n2)CC1 [Compound 130, 2-[(3,4-difluoro)phenylamino]-6-(4-aminopiperidino)-3-nitropyridine]	–	–	101	–
O=[N+]([O-])c1ccc(NCc2ccncc2)nc1Nc1ccc(F)c(F)c1 [Compound 131, 2-[(3,4-difluoro)phenylamino]-6-[(4-pyridyl)methylamino]-3-nitropyridine]	–	–	100	–
O=[N+]([O-])c1ccc(N2CCC(O)CC2)nc1Nc1ccc(-c2csc(C3CCCCC3)n2)cc1 [Compound 155, 2-[4-(2-cyclohexylthiazol-4-yl)phenylamino]-6-(4-hydroxypiperidino)-3-nitropyridine]	–	–	105	–
CC(C)c1nccn1-c1ccc([N+](=O)[O-])c(Nc2ccc(-c3csc(C4CCCCC4)n3)cc2)n1 [Compound 157, 2-[4-(2-cyclohexylthiazol-4-yl)phenylamino]-6-[(2-isopropyl)imidazol-1-yl]-3-nitropyridine]	–	–	115	–
O=[N+]([O-])c1ccc(N2CCNCC2)nc1Nc1ccc(-c2csc(C3CCCCC3)n2)cc1 [Compound 158, 2-[4-(2-cyclohexylthiazol-4-yl)phenylamino]-6-(piperazin-1-yl)-3-nitropyridine]	–	–	88	–
O=[N+]([O-])c1ccc(N2CCOCC2)nc1Nc1ccc(-c2csc(C3CCCCC3)n2)cc1 [Compound 160, 2-[4-(2-cyclohexylthiazol-4-yl)phenylamino]-6-morpholino-3-nitropyridine]	–	–	105	–
O=[N+]([O-])c1ccc(NCc2cccnc2)nc1Nc1ccc(-c2csc(C3CCCCC3)n2)cc1 [Compound 162, 2-[4-(2-cyclohexylthiazol-4-yl)phenylamino]-6-[(3-pyridyl)methylamino]-3-nitropyridine]	–	–	67	–
O=[N+]([O-])c1ccc(NCCc2ccccn2)nc1Nc1ccc(-c2csc(C3CCCCC3)n2)cc1 [Compound 164, 2-[4-(2-cyclohexylthiazol-4-yl)phenylamino]-6-[2-(2-pyridyl)ethylamino]-3-nitropyridine]	–	–	104	–
CCCCNc1ccc([N+](=O)[O-])c(Nc2ccc(-c3csc(C4CCCCC4)n3)cc2)n1 [Compound 165, 2-[4-(2-cyclohexylthiazol-4-yl)phenylamino]-6-(n-butylamino)-3-nitropyridine]	–	–	102	–
CNc1ccc([N+](=O)[O-])c(Nc2ccc(N3CCOCC3)c(F)c2)n1 [Compound 191, 2-[(3-fluoro-4-morpholino)phenylamino]-6-(methylamino)-3-nitropyridine]	97	156 % of Control	–	–
CC(C)Nc1ccc([N+](=O)[O-])c(Nc2ccc(N3CCOCC3)c(F)c2)n1 [Compound 192, 2-[(3-fluoro-4-morpholino)phenylamino]-6-(isopropylamino)-3-nitropyridine]	99	113 % of Control	–	–
CNc1ccc([N+](=O)[O-])c(Nc2ccc(N3CCSCC3)c(F)c2)n1 [Compound 203, 2-[(3-fluoro-4-thiomorpholino)phenylamino]-6-(methylamino)-3-nitropyridine]	97	154 % of Control	–	–
CC(C)CNc1ccc([N+](=O)[O-])c(Nc2ccc(N3CCSCC3)c(F)c2)n1 [Compound 205, 2-[(3-fluoro-4-thiomorpholino)phenylamino]-6-(isobutylamino)-3-nitropyridine]	109	132 % of Control	–	–
O=[N+]([O-])c1ccc(N2CCC(O)CC2)nc1Nc1ccc(N2CCSCC2)c(F)c1 [Compound 206, 2-[(3-fluoro-4-thiomorpholino)phenylamino]-6-(4-hydroxypiperidino)-3-nitropyridine]	102	124 % of Control	–	–
CC(C)Nc1ccc([N+](=O)[O-])c(Nc2ccc(N3CCCCC3)c(F)c2)n1 [Compound 224, 2-[(3-fluoro-4-piperidino)phenylamino]-6-(isopropylamino)-3-nitropyridine]	101	125 % of Control	–	–
CC(C)Nc1ccc([N+](=O)[O-])c(Nc2ccc(N3CCC(O)CC3)c(F)c2)n1 [Compound 237, 2-{[3-fluoro-4-(4-hydroxypiperidino)]phenylamino}-6-(isopropylamino)-3-nitropyridine]	99	117 % of Control	–	–
O=[N+]([O-])c1ccc(N2CCC(O)CC2)nc1Nc1ccc(N2CCC(O)CC2)c(F)c1 [Compound 239, 2-{[3-fluoro-4-(4-hydroxypiperidino)]phenylamino}-6-(4-hydroxypiperidino)-3-nitropyridine]	98	130 % of Control	–	–
CC1=NCCN1c1ccc([N+](=O)[O-])c(Nc2ccc(N3CCC(N)CC3)c(F)c2)n1 [Compound 252, 2-{[3-fluoro-4-(4-aminopiperidino)]phenylamino}-6-[(2-methyl-4,5-dihydro)imidazol-1-yl]-3-nitropyridine]	103	112 % of Control	–	–
NC1CCN(c2ccc(Nc3nc(N4CCNCC4)ccc3[N+](=O)[O-])cc2F)CC1 [Compound 253, 2-{[3-fluoro-4-(4-aminopiperidino)]phenylamino}-6-(piperazin-1-yl)-3-nitropyridine]	104	115 % of Control	–	–
NC1CCN(c2ccc(Nc3nc(NCc4cccnc4)ccc3[N+](=O)[O-])cc2F)CC1 [Compound 257, 2-{[3-fluoro-4-(4-aminopiperidino)]phenylamino}-6-[(3-pyridyl)methylamino]-3-nitropyridine]	101	122 % of Control	–	–
NC1CCN(c2ccc(Nc3nc(NCc4ccncc4)ccc3[N+](=O)[O-])cc2F)CC1 [Compound 258, 2-{[3-fluoro-4-(4-aminopiperidino)]phenylamino}-6-[(4-pyridyl)methylamino]-3-nitropyridine]	101	115 % of Control	–	–
